≈ marks a conversion by molar mass, not a printed value.
Columns and labels:
[1] = system: Escherichia coli (E. coli) BAS849; test: Antibacterial activity, microbroth dilution MIC (Table 1); assay type: cell-based; conditions: microbroth dilution, super sensitive Gram-negative E. coli BAS849, read-out: MIC, BAS849
In short: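 In a microbroth dilution test, the minimum inhibitory concentration was defined as the lowest compound level preventing growth seen by eye, and was given in μg/mL.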

[2] = system: Staphylococcus aureus (S. aureus) 29213; test: as above; assay type: cell-based; conditions: microbroth dilution, Gram-positive S. aureus 29213, read-out: MIC, 29213
In short: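 Read-out: visual absence of growth. The lowest concentration meeting this gives the MIC, expressed in μg/mL, with microbroth dilution as the method.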

E. coli 25922 = test: as above; assay type: cell-based, Escherichia coli; conditions: Escherichia coli; microbroth dilution; control Gram-negative E. coli 25922 strain; read-out: MIC, 25922
In short: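 Lowest concentration stopping macroscopically visible growth under test conditions, by broth microdilution, defines the MIC (μg/mL).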

E. coli LZ3111 = test: Antibacterial activity, MIC, quinolone resistant strain (Table 2); assay type: cell-based; conditions: Escherichia coli, LZ3111, read-out: MIC LZ3111
In short: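 Strain carries mutations conferring high-level quinolone resistance; tested by microbroth dilution, MIC recorded in μg/mL as lowest concentration preventing visible growth.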

[3] = system: Acinetobacter baumannii (A. baumannii) BAA747; test: Antibacterial activity, MIC (Table 4); assay type: cell-based; conditions: A. baumannii BAA747, read-out: MIC, BAA747
Text: (§1) The antibacterial activity from a microbroth dilution method may be presented as the minimum inhibitory concentration (MIC in μg/mL). The MIC value is the lowest concentration of drug which prevents macroscopically visible growth under test conditions.
(§2) Antibacterial activity of test compounds against the Gram-negative Acinetobacter baumannii (A. baumannii) BAA747 and Klebsiella pneumoniae (K. pneumoniae) 35657 bacterium and the resistant A. baumannii MXX2240 and K. pneumoniae MXX1232 strains are shown in Table 4. The MMX strains are multi-drug resistant clinical isolates.

[4] = system: Klebsiella pneumoniae (K. pneumoniae) 35657; test: Antibacterial activity, MIC (Table 4); assay type: cell-based; conditions: K. pneumoniae 35657, read-out: MIC, 35657
Text: as §1, §2

A. baumannii MXX2240 = test: Antibacterial activity, MIC, resistant strain (Table 4); assay type: cell-based; conditions: Acinetobacter baumannii, MXX2240; resistant A. baumannii MMX2240, multi-drug resistant clinical isolate; read-out: MIC, MMX2240
Text: as §1, §2

K. pneumoniae MXX1232 = test: as above; assay type: cell-based; conditions: Klebsiella pneumoniae, MXX1232; resistant K. pneumoniae MMX1232, multi-drug resistant clinical isolate; read-out: MIC, MMX1232
Text: as §1, §2

[5] = system: Pseudomonas aeruginosa (P. aeruginosa) 27853; test: Antibacterial activity, MIC (Table 5); assay type: cell-based; conditions: P. aeruginosa 27853, read-out: MIC, 27853
Text: as §1
Antibacterial activity of test compounds against the Gram-negative bacterium Pseudomonas aeruginosa (P. aeruginosa) 27853 is shown in Table 5.

Compound	MIC [1]	MIC [2]	MIC (E. coli 25922)	MIC (E. coli LZ3111)	MIC [3]	MIC [4]	MIC (A. baumannii MXX2240)	MIC (K. pneumoniae MXX1232)	MIC [5]
C=CCc1c(-c2ccc3c(c2)cc(CN(C)C)n3C)[nH]c(=O)c(C(=O)O)c1O [Cpd 339, 5-allyl-6-(2-((dimethylamino)methyl)-1-methyl-1H-indol-5-yl)-4-hydroxy-2-oxo-1,2-dihydropyridine-3-carboxylic acid]	< 1 mg/L	3.5 to 12.5 mg/L (≈ 9.18 to 32.8 µM)	< 1 mg/L	3.5 to 12.5 mg/L (≈ 9.18 to 32.8 µM)	3.5 to 12.5 mg/L (≈ 9.18 to 32.8 µM)	1 to 3.5 mg/L (≈ 2.62 to 9.18 µM)	3.5 to 12.5 mg/L (≈ 9.18 to 32.8 µM)	12.5 to 150 mg/L (≈ 32.8 to 393 µM)	12.5 to 150 mg/L (≈ 32.8 to 393 µM)
CCCc1c(-c2ccc3c(c2)cc(CN(C)C)n3C)[nH]c(=O)c(C(=O)O)c1O [Cpd 340, 6-(2-((dimethylamino)methyl)-1-methyl-1H-indol-5-yl)-4-hydroxy-2-oxo-5-propyl-1,2-dihydropyridine-3-carboxylic acid]	< 1 mg/L	12.5 to 150 mg/L (≈ 32.6 to 391 µM)	3.5 to 12.5 mg/L (≈ 9.13 to 32.6 µM)	3.5 to 12.5 mg/L (≈ 9.13 to 32.6 µM)	12.5 to 150 mg/L (≈ 32.6 to 391 µM)	3.5 to 12.5 mg/L (≈ 9.13 to 32.6 µM)	3.5 to 12.5 mg/L (≈ 9.13 to 32.6 µM)	12.5 to 150 mg/L (≈ 32.6 to 391 µM)	12.5 to 150 mg/L (≈ 32.6 to 391 µM)
COCCNCc1cc2cc(-c3[nH]c(=O)c(C(=O)O)c(O)c3C)ccc2n1C [Cpd 341, 4-hydroxy-6-(2-((2-methoxyethylamino)methyl)-1-methyl-1H-indol-5-yl)-5-methyl-2-oxo-1,2-dihydropyridine-3-carboxylic acid]	< 1 mg/L	12.5 to 150 mg/L (≈ 32.4 to 389 µM)	3.5 to 12.5 mg/L (≈ 9.08 to 32.4 µM)	< 1 mg/L	3.5 to 12.5 mg/L (≈ 9.08 to 32.4 µM)	3.5 to 12.5 mg/L (≈ 9.08 to 32.4 µM)	1 to 3.5 mg/L (≈ 2.59 to 9.08 µM)	12.5 to 150 mg/L (≈ 32.4 to 389 µM)	12.5 to 150 mg/L (≈ 32.4 to 389 µM)
CCNCc1cc2cc(-c3[nH]c(=O)c(C(=O)O)c(O)c3C)ccc2n1C [Cpd 342, 6-(2-((ethylamino)methyl)-1-methyl-1H-indol-5-yl)-4-hydroxy-5-methyl-2-oxo-1,2-dihydropyridine-3-carboxylic acid]	< 1 mg/L	12.5 to 150 mg/L (≈ 35.2 to 422 µM)	1 to 3.5 mg/L (≈ 2.81 to 9.85 µM)	< 1 mg/L	3.5 to 12.5 mg/L (≈ 9.85 to 35.2 µM)	< 1 mg/L	1 to 3.5 mg/L (≈ 2.81 to 9.85 µM)	12.5 to 150 mg/L (≈ 35.2 to 422 µM)	12.5 to 150 mg/L (≈ 35.2 to 422 µM)
Cc1c(-c2ccc3c(c2)cc(CNCCN)n3C)[nH]c(=O)c(C(=O)O)c1O [Cpd 343, 6-(2-((2-aminoethylamino)methyl)-1-methyl-1H-indol-5-yl)-4-hydroxy-5-methyl-2-oxo-1,2-dihydropyridine-3-carboxylic acid]	12.5 to 150 mg/L (≈ 33.7 to 405 µM)	12.5 to 150 mg/L (≈ 33.7 to 405 µM)	12.5 to 150 mg/L (≈ 33.7 to 405 µM)	12.5 to 150 mg/L (≈ 33.7 to 405 µM)	12.5 to 150 mg/L (≈ 33.7 to 405 µM)	12.5 to 150 mg/L (≈ 33.7 to 405 µM)	12.5 to 150 mg/L (≈ 33.7 to 405 µM)	12.5 to 150 mg/L (≈ 33.7 to 405 µM)	12.5 to 150 mg/L (≈ 33.7 to 405 µM)
CNCCNCc1cc2cc(-c3[nH]c(=O)c(C(=O)O)c(O)c3C)ccc2n1C [Cpd 344, 4-hydroxy-5-methyl-6-(1-methyl-2-((2-(methylamino)ethylamino)methyl)-1H-indol-5-yl)-2-oxo-1,2-dihydropyridine-3-carboxylic acid]	12.5 to 150 mg/L (≈ 32.5 to 390 µM)	12.5 to 150 mg/L (≈ 32.5 to 390 µM)	12.5 to 150 mg/L (≈ 32.5 to 390 µM)	12.5 to 150 mg/L (≈ 32.5 to 390 µM)	12.5 to 150 mg/L (≈ 32.5 to 390 µM)	12.5 to 150 mg/L (≈ 32.5 to 390 µM)	12.5 to 150 mg/L (≈ 32.5 to 390 µM)	12.5 to 150 mg/L (≈ 32.5 to 390 µM)	12.5 to 150 mg/L (≈ 32.5 to 390 µM)
Cc1c(-c2ccc3c(c2)cc(CNCCN(C)C)n3C)[nH]c(=O)c(C(=O)O)c1O [Cpd 345, 6-(2-((2-(dimethylamino)ethylamino)methyl)-1-methyl-1H-indol-5-yl)-4-hydroxy-5-methyl-2-oxo-1,2-dihydropyridine-3-carboxylic acid]	3.5 to 12.5 mg/L (≈ 8.78 to 31.4 µM)	12.5 to 150 mg/L (≈ 31.4 to 376 µM)	12.5 to 150 mg/L (≈ 31.4 to 376 µM)	1 to 3.5 mg/L (≈ 2.51 to 8.78 µM)	12.5 to 150 mg/L (≈ 31.4 to 376 µM)	12.5 to 150 mg/L (≈ 31.4 to 376 µM)	12.5 to 150 mg/L (≈ 31.4 to 376 µM)	12.5 to 150 mg/L (≈ 31.4 to 376 µM)	12.5 to 150 mg/L (≈ 31.4 to 376 µM)
COCC(C)NCc1cc2cc(-c3[nH]c(=O)c(C(=O)O)c(O)c3C)ccc2n1C (stereo not drawn) [Cpd 346, 4-hydroxy-6-(2-((1-methoxypropan-2-ylamino)methyl)-1-methyl-1H-indol-5-yl)-5-methyl-2-oxo-1,2-dihydropyridine-3-carboxylic acid]	< 1 mg/L	12.5 to 150 mg/L (≈ 31.3 to 376 µM)	12.5 to 150 mg/L (≈ 31.3 to 376 µM)	3.5 to 12.5 mg/L (≈ 8.76 to 31.3 µM)	3.5 to 12.5 mg/L (≈ 8.76 to 31.3 µM)	3.5 to 12.5 mg/L (≈ 8.76 to 31.3 µM)	3.5 to 12.5 mg/L (≈ 8.76 to 31.3 µM)	12.5 to 150 mg/L (≈ 31.3 to 376 µM)	12.5 to 150 mg/L (≈ 31.3 to 376 µM)
CCC(C)NCc1cc2cc(-c3[nH]c(=O)c(C(=O)O)c(O)c3C)ccc2n1C (stereo not drawn) [Cpd 347, 6-(2-((sec-butylamino)methyl)-1-methyl-1H-indol-5-yl)-4-hydroxy-5-methyl-2-oxo-1,2-dihydropyridine-3-carboxylic acid]	< 1 mg/L	12.5 to 150 mg/L (≈ 32.6 to 391 µM)	3.5 to 12.5 mg/L (≈ 9.13 to 32.6 µM)	1 to 3.5 mg/L (≈ 2.61 to 9.13 µM)	< 1 mg/L	1 to 3.5 mg/L (≈ 2.61 to 9.13 µM)	< 1 mg/L	12.5 to 150 mg/L (≈ 32.6 to 391 µM)	12.5 to 150 mg/L (≈ 32.6 to 391 µM)
Cc1c(-c2ccc3c(c2)cc(CNC(C)C)n3C)[nH]c(=O)c(C(=O)O)c1O [Cpd 348, 4-hydroxy-6-(2-((isopropylamino)methyl)-1-methyl-1H-indol-5-yl)-5-methyl-2-oxo-1,2-dihydropyridine-3-carboxylic acid]	< 1 mg/L	12.5 to 150 mg/L (≈ 33.8 to 406 µM)	3.5 to 12.5 mg/L (≈ 9.47 to 33.8 µM)	1 to 3.5 mg/L (≈ 2.71 to 9.47 µM)	1 to 3.5 mg/L (≈ 2.71 to 9.47 µM)	1 to 3.5 mg/L (≈ 2.71 to 9.47 µM)	1 to 3.5 mg/L (≈ 2.71 to 9.47 µM)	12.5 to 150 mg/L (≈ 33.8 to 406 µM)	12.5 to 150 mg/L (≈ 33.8 to 406 µM)
Cc1c(-c2ccc3c(c2)cc(CNC(C)CO)n3C)[nH]c(=O)c(C(=O)O)c1O (stereo not drawn) [Cpd 349, 4-hydroxy-6-(2-((1-hydroxypropan-2-ylamino)methyl)-1-methyl-1H-indol-5-yl)-5-methyl-2-oxo-1,2-dihydropyridine-3-carboxylic acid]	1 to 3.5 mg/L (≈ 2.59 to 9.08 µM)	12.5 to 150 mg/L (≈ 32.4 to 389 µM)	12.5 to 150 mg/L (≈ 32.4 to 389 µM)	3.5 to 12.5 mg/L (≈ 9.08 to 32.4 µM)	12.5 to 150 mg/L (≈ 32.4 to 389 µM)	3.5 to 12.5 mg/L (≈ 9.08 to 32.4 µM)	12.5 to 150 mg/L (≈ 32.4 to 389 µM)	12.5 to 150 mg/L (≈ 32.4 to 389 µM)	12.5 to 150 mg/L (≈ 32.4 to 389 µM)
Cc1c(-c2ccc3c(c2)cc(CNCCO)n3C)[nH]c(=O)c(C(=O)O)c1O [Cpd 350, 4-hydroxy-6-(2-((2-hydroxyethylamino)methyl)-1-methyl-1H-indol-5-yl)-5-methyl-2-oxo-1,2-dihydropyridine-3-carboxylic acid]	3.5 to 12.5 mg/L (≈ 9.42 to 33.7 µM)	12.5 to 150 mg/L (≈ 33.7 to 404 µM)	12.5 to 150 mg/L (≈ 33.7 to 404 µM)	3.5 to 12.5 mg/L (≈ 9.42 to 33.7 µM)	12.5 to 150 mg/L (≈ 33.7 to 404 µM)	12.5 to 150 mg/L (≈ 33.7 to 404 µM)	12.5 to 150 mg/L (≈ 33.7 to 404 µM)	12.5 to 150 mg/L (≈ 33.7 to 404 µM)	12.5 to 150 mg/L (≈ 33.7 to 404 µM)
Cc1c(-c2ccc3c(c2)cc(CNC(C)(C)C)n3C)[nH]c(=O)c(C(=O)O)c1O [Cpd 351, 6-(2-((tert-butylamino)methyl)-1-methyl-1H-indol-5-yl)-4-hydroxy-5-methyl-2-oxo-1,2-dihydropyridine-3-carboxylic acid]	< 1 mg/L	12.5 to 150 mg/L (≈ 32.6 to 391 µM)	1 to 3.5 mg/L (≈ 2.61 to 9.13 µM)	3.5 to 12.5 mg/L (≈ 9.13 to 32.6 µM)	< 1 mg/L	1 to 3.5 mg/L (≈ 2.61 to 9.13 µM)	1 to 3.5 mg/L (≈ 2.61 to 9.13 µM)	12.5 to 150 mg/L (≈ 32.6 to 391 µM)	12.5 to 150 mg/L (≈ 32.6 to 391 µM)
